Reference: paper PMC8414802, “Hair Cell Generation in Cochlear Culture Models Mediated by Novel γ-Secretase Inhibitors” (Frontiers in Cell and Developmental Biology, 2021)

Legend:
[1] = system: Atoh1, Pou4f3, Myo7a expression in otic spheres; test: Otic sphere assay, hair cell gene expression; format: cell-based, mouse
Method: The generation of otic spheres followed previously described protocols ([Oshima et al., 2009]) with modifications during differentiation phase to test GSIs. Briefly, OCs were dissociated and single cells were deposited in ultralow-cluster plates (Corning) and expanded in “full otic medium” consisting of DMEM/F12, supplemented with N2, B27 (Thermo Fisher), EGF (20 ng/ml; Chemicon), bFGF (10 ng/ml; Chemicon), IGF-1 (50 ng/ml; Chemicon), and heparan sulfate (50 ng/ml; Sigma-Aldrich). After culturing for 3–4 days at 37°C, spheres were collected, plated in cell culture-treated 96 well-plate and cultured in DMEM/F12, supplemented with N2, B27 with/without GSIs for 7 days after which they were lysed for RNA extraction.
Cells or tissue were lysed using RLT Lysis Buffer (Qiagen) and high purity RNA was prepared on the MagNA Pure instrument using MagNA Pure 96 Cellular RNA LV Kit (Roche). Reagents from Thermo Fisher were used for cDNA synthesis by reverse transcription using random hexamers. Resulting cDNA was RNAse H treated and amplified by TaqMan GEX mastermix and PCR primers and probes for human ATOH1 (Hs00944192_s1) and TBP (Hs00427620_m1), mouse Tbp (Mm00446971_m1), Atoh1 (Mm00476035_s1), Hes5 (Mm00439311_g1), Pouf4s (Mm04213795_s1), and Myo7a (Mm01274015_m1) on the Applied Biosystems QuantStudio 7 Flex Real-Time PCR System. Normalized to Tbp, relative gene expression fold-change was quantified and compared between experimental and control conditions by ΔΔCt calculation.
CPD3 and CPD8 were further compared for their potency to induce hair cell gene expression in otic sphere assays ([Oshima et al., 2009]). Cells were first expanded in presence of growth factors, and in a second step differentiated by growth factor removal and GSI treatment. […] This indicated a modest advantage of CPD3 in eliciting expression of the early hair cell marker Atoh1, but similar potency on expression of some later markers of HC differentiation, Pou4f3 and Myo7a (Figure 2A). From the results of two screening assays, CPD3 was selected for additional characterization studies based on its lower IC50 to induce Atoh1/ATOH1 expression in the otic spheres and LS174T cells, respectively.

[2] = system: hair cell genes (Atoh1, Pou4f3, Myo7a) and supporting cell gene (Hes5) in cochlear organoids; test: Cochlear organoids from Atoh1-nGFP mice, gene expression by RT-PCR; format: cell-based; settings: mouse organoids, 5 μM, end of differentiation, vs untreated
Method: On day 0, the cochlear sensory epithelium was dissected and the OC was separated from the modiolus and stria vascularis, as described above, from either Wistar rat pups (P2), Lgr5-GFP mice (P0–P2) or Atoh1-GFP mice (P0–P2). To separate the sensory epithelial layer from underlying mesenchyme and neurons, the OC was placed in a 100 μl drop of Matrisperse Cell Recovery Solution (Corning) for 1 h at RT, then delaminated with the aid of forceps. Gentle enzymatic dissociation of hair cells and supporting cells followed with 100 μl drop of TrypLE (Gibco), 20 min at 37°C, then mechanical trituration in DMEM/F12. The cell suspension was centrifuged for 5 min at 500 g at 4°C and resuspended in DMEM/F12 medium supplemented with B27 and N2 (Invitrogen), EGF (50 ng/ml), bFGF (50 ng/ml), IGF (25 ng/ml), CHIR99021 (GSK-3β inhibitor, 3 μM, Merck), valproic acid (HDAC inhibitor, 1 mM, Sigma), 2-phospho-L-ascorbic acid (280 μM, Stemcell Technologies) and 0.01% ampicillin (Sigma). Cells were plated at 2,000 cells per well on 96 wells plate (Corning Costar; ultra-low attachment, round-bottom) to allow aggregation at 37°C. On day 1, Matrigel (GF-depleted, Corning; 2% stock) was added to a final concentration of 0.18 mg/ml. On day 3, cells were transferred to 24 wells plate (ultra-low attachment; Corning Costar), pooling the organoid aggregates from 4 to 5 wells (96 well-plate) to one 24-well, culturing at 37°C and exchanging half medium and Matrigel every other day, On day 10, organoids were differentiated by replacing medium with DMEM/F12 supplemented with B27, N2, CHIR99021 (3 μM), and Notch inhibitors CPD3 (5 μM) or LY411575 (5 μM), and culture was continued as above for another 10 days.
Cells or tissue were lysed using RLT Lysis Buffer (Qiagen) and high purity RNA was prepared on the MagNA Pure instrument using MagNA Pure 96 Cellular RNA LV Kit (Roche). […] Normalized to Tbp, relative gene expression fold-change was quantified and compared between experimental and control conditions by ΔΔCt calculation. […]

IC50 ([1]; Mus musculus, 168 h, 7 days differentiation with GSI, read-out: IC50 for Atoh1 upregulation): 6.7 nM
Compound: COc1ccc2c(c1)N1CCC(C)(C)C1=CC(=O)[C@H]2NC(=O)[C@H](C)NC(=O)CCC(F)(F)F [CPD3]
Induction of Atoh1, Pou4f3 and Myo7a expression ([1]; dose-responsive, p < 0.05): significantly induced | Atoh1 expression [2]: 8.07 ± 5.6 fold | Myo7a expression [2]: 9.9 ± 10.5 fold | Pou4f3 expression [2]: 12.65 ± 11.07 fold
